# Reference: US10124022B2, “Compositions and methods for enhancing the effectiveness of systemic, HIPEC, IP, and related cancer treatments” (ChemoTherapeutics, LLC, priority 2010, dated 2018)
# “And” between values parts separate entries of the source, which are not always exact repeats. Equal values may be shown once. Read-outs that look alike come from different tables or passages of the source.
# What was measured:
# HCT-116 cells [1] = assay: MTS assay, two-hour drug treatment, drugs replaced with fresh medium, measured after one day (Study 7b); conditions: FIG. 7b
# Method: For each study, two plates of HCT-116 cells were seeded in 96-well cell culture plates (2000 cells per well for three-day studies and 10,000 cells for one-day studies). The next day, drugs prepared in 200 μl of culture medium were added to the wells. […] Each treatment was completed in triplicate. One plate was incubated at 37° C. while the other plate was incubated at 42° C. (hyperthermia) for one hour (two hours for study 7 and 8). After the treatment, 4000 freshly harvested cells (cells which were not subjected to hyperthermia) were added to 3 wells of each plate to assess the effect of hyperthermia (for one-day experiments, 20,000 cells will be added). […] Cell viability was measured using MTS assay (Promega CellTiter 96 Aqueous MTS Assay reagents).
# Tested the short-term cytotoxic effects of combination treatments (±hyperthermia at 42° C. for two hour) with chemotherapeutic reagents (0.2 μM Mitomycin C or 10 μM Cisplatin) and three non-chemotherapeutic reagents (1.25 mM Vitamin C, 20 μM Selenite and 150 μM Quercetin). […] Cytotoxicity was measured with MTS assay immediately after the two-hour drug/hyperthermia treatment. • b. […] Drugs were replaced with fresh medium after the treatment, and the cytotoxic effect was measured after one day. • c. Cells were incubated with drugs for one day before the cytotoxicity was measured.
# HCT-116 cells [2] = assay: MTS cell viability assay, drugs ± one-hour hyperthermia, cytotoxicity measured after three days (Studies 1-6);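 as to all read-outs here: Drug-treated HCT-116 cells held one hour at 42 °C (hyperthermia) or 37 °C, then cultured at 37 °C, viability read by MTS in triplicate wells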; conditions: for % cell survival / GI50 / growth inhibition at the concentrations tested / growth promoting effect / cell survival: three days; for GI50: HCT-116 cells; for effect on the cytotoxicity caused by Selenite: Study 6, FIG. 6c; for cell survival: 200 nM
# Method: For each study, two plates of HCT-116 cells were seeded in 96-well cell culture plates (2000 cells per well for three-day studies and 10,000 cells for one-day studies). The next day, drugs prepared in 200 μl of culture medium were added to the wells. […] Each treatment was completed in triplicate. One plate was incubated at 37° C. while the other plate was incubated at 42° C. (hyperthermia) for one hour (two hours for study 7 and 8). After the treatment, 4000 freshly harvested cells (cells which were not subjected to hyperthermia) were added to 3 wells of each plate to assess the effect of hyperthermia (for one-day experiments, 20,000 cells will be added). Both plates were incubated at 37° C. for the number of days specified in each study. Cell viability was measured using MTS assay (Promega CellTiter 96 Aqueous MTS Assay reagents).
# Cytotoxicity was measured after three days.
# The non-chemotherapeutic agent combinations tested were: Vitamin C/Selenite and Vitamin C/Selenite/Quercetin. Cytotoxicity was measured after three days.
# The non-chemotherapeutic agent combinations tested were: Vitamin E/Selenite/Quercetin and Selenite/Quercetin. Cytotoxicity was measured after three days.
# Tested the cytotoxic effects of combination treatments (±hyperthermia at 42° C. for one hour) with chemotherapeutic reagents (Mitomycin C at 0.2 and 0.8 μM or Cisplatin at 2.5 and 10 μM) and four non-chemotherapeutic reagents (100 nM Vitamin D, 40 μM Vitamin E, 20 μM Selenite and 150 μNA Quercetin). The non-chemotherapeutic agent combinations tested were: Quercetin/Vitamin D/Vitamin E/Selenite, Vitamin E/Selenite, and Vitamin D/Vitamin E/Selenite. Cytotoxicity was measured after three days.
# The non-chemotherapeutic agent combinations tested were: Vitamin C/Selenite, Vitamin C/Quercetin, Selenite/Quercetin and Vitamin C/Selenite/Quercetin. Cytotoxicity was measured after three days.
# [3] = read-out: Growth inhibition (GI50)
# [4] = Study 5, no chemotherapeutic, 100 nM Vitamin D, 40 μM Vitamin E, 20 μM Selenite, 150 μM Quercetin as named, 37° C.
# [5] = Study 5, no chemotherapeutic, 100 nM Vitamin D, 40 μM Vitamin E, 20 μM Selenite, 150 μM Quercetin as named, 42° C. 1 hr
# [6] = Study 4, no chemotherapeutic, 40 μM Vitamin E, 20 μM Selenite, 150 μM Quercetin as named, 37° C.
# [7] = Study 4, no chemotherapeutic, 40 μM Vitamin E, 20 μM Selenite, 150 μM Quercetin as named, 42° C. 1 hr
compound,measurement,setting,value
"N.N.[Cl][Pt][Cl] [Cisplatin, reference compound]","cancer cell killing after 2 hours of treatment, cell survival measured one day later",HCT-116 cells [1],additional killing effect
same,% cell survival,"HCT-116 cells [2]; Study 4, 2.5 μM Cisplatin, alone or with 40 μM Vitamin E, 20 μM Selenite, 150 μM Quercetin as named, 37° C.",74.7%
same,% cell survival,"HCT-116 cells [2]; Study 4, 2.5 μM Cisplatin, alone or with 40 μM Vitamin E, 20 μM Selenite, 150 μM Quercetin as named, 42° C. 1 hr",61.7%
same,% cell survival,"HCT-116 cells [2]; Study 4, 10 μM Cisplatin, alone or with 40 μM Vitamin E, 20 μM Selenite, 150 μM Quercetin as named, 37° C.",37.5%
same,% cell survival,"HCT-116 cells [2]; Study 4, 10 μM Cisplatin, alone or with 40 μM Vitamin E, 20 μM Selenite, 150 μM Quercetin as named, 42° C. 1 hr",37.5%
same,% cell survival,"HCT-116 cells [2]; Study 5, 2.5 μM Cisplatin, alone or with 100 nM Vitamin D, 40 μM Vitamin E, 20 μM Selenite, 150 μM Quercetin as named, 37° C.",86.1%
same,% cell survival,"HCT-116 cells [2]; Study 5, 2.5 μM Cisplatin, alone or with 100 nM Vitamin D, 40 μM Vitamin E, 20 μM Selenite, 150 μM Quercetin as named, 42° C. 1 hr",76.0%
same,% cell survival,"HCT-116 cells [2]; Study 5, 10 μM Cisplatin, alone or with 100 nM Vitamin D, 40 μM Vitamin E, 20 μM Selenite, 150 μM Quercetin as named, 37° C.",52.1%
same,% cell survival,"HCT-116 cells [2]; Study 5, 10 μM Cisplatin, alone or with 100 nM Vitamin D, 40 μM Vitamin E, 20 μM Selenite, 150 μM Quercetin as named, 42° C. 1 hr",41.9%
same,GI50,HCT-116 cells [2]; [3],12 µM
"CO[C@@]12[C@H](COC(N)=O)C3=C(C(=O)C(C)=C(N)C3=O)N1C[C@@H]1N[C@@H]12 [Mitomycin C, reference compound]",% cell survival,"HCT-116 cells [2]; Study 3, 0.2 μM Mitomycin C, alone or with 1.25 mM Vitamin C, 20 μM Selenite as named, 37° C.",35%
same,% cell survival,"HCT-116 cells [2]; Study 3, 0.2 μM Mitomycin C, alone or with 1.25 mM Vitamin C, 20 μM Selenite as named, 42° C. 1 hr",36.9%
same,% cell survival,"HCT-116 cells [2]; Study 3, 0.8 μM Mitomycin C, alone or with 1.25 mM Vitamin C, 20 μM Selenite as named, 37° C.",16.9%
same,% cell survival,"HCT-116 cells [2]; Study 3, 0.8 μM Mitomycin C, alone or with 1.25 mM Vitamin C, 20 μM Selenite as named, 42° C. 1 hr",15.5%
same,% cell survival,"HCT-116 cells [2]; Study 4, 0.2 μM Mitomycin C, alone or with 40 μM Vitamin E, 20 μM Selenite, 150 μM Quercetin as named, 37° C.",33.3%
same,% cell survival,"HCT-116 cells [2]; Study 4, 0.2 μM Mitomycin C, alone or with 40 μM Vitamin E, 20 μM Selenite, 150 μM Quercetin as named, 42° C. 1 hr",36.5%
same,% cell survival,"HCT-116 cells [2]; Study 4, 0.8 μM Mitomycin C, alone or with 40 μM Vitamin E, 20 μM Selenite, 150 μM Quercetin as named, 37° C.",16.4%
same,% cell survival,"HCT-116 cells [2]; Study 4, 0.8 μM Mitomycin C, alone or with 40 μM Vitamin E, 20 μM Selenite, 150 μM Quercetin as named, 42° C. 1 hr",22.1%
same,GI50,HCT-116 cells [2]; [3],1.3 µM
O=c1c(O)c(-c2ccc(O)c(O)c2)oc2cc(O)cc(O)c12 [Quercetin],% cell survival,"HCT-116 cells [2]; Study 2, 20 μM, 37° C.",129%
same,% cell survival,"HCT-116 cells [2]; Study 2, 20 μM, 42° C. 1 hr",118%
same,% cell survival,"HCT-116 cells [2]; Study 2, 100 μM, 37° C.",123%
same,% cell survival,"HCT-116 cells [2]; Study 2, 100 μM, 42° C. 1 hr",111%
same,growth inhibition at the concentrations tested,HCT-116 cells [2]; Study 2,did not show significant growth inhibition
same,growth promoting effect,HCT-116 cells [2]; Study 2,slight growth promoting effect at the lower concentrations tested
same,"cancer cell killing without chemotherapeutic agent, compared to the agents alone","HCT-116 cells [2]; Study 3, FIG. 3b",did not show enhanced killing
same,effect on cytotoxicity of the co-administered treatment,"HCT-116 cells [2]; Study 4, FIG. 4b-4d",reduced the cytotoxicity of Selenite
same,effect on cytotoxicity of the co-administered treatment,"HCT-116 cells [2]; Study 5, FIG. 5b-5e",reduced the cytotoxicity of Selenite/Vit-D/Vit-E
same,% cell survival,HCT-116 cells [2]; [4],98.0%
same,% cell survival,HCT-116 cells [2]; [5],89.5%
same,effect on the cytotoxicity caused by Selenite,HCT-116 cells [2],reduced the cytotoxicity caused by Selenite
O=[Se](O)O [Selenite],effect of hyperthermia treatment on cell growth,"HCT-116 cells [2]; Study 2, 42° C. 1 hr vs 37° C.",No significant effect
same,% cell survival,HCT-116 cells [2]; [6],45%
same,% cell survival,HCT-116 cells [2]; [7],39.7% and 39.8%
same,% cell survival,HCT-116 cells [2]; [4],42.6%
same,% cell survival,HCT-116 cells [2]; [5],32.9%
same,GI50,HCT-116 cells [2]; [3],~30 µM
O=C1O[C@H]([C@@H](O)CO)C(O)=C1O [Vitamin C],GI50,HCT-116 cells [2],~2000 µM
same,% cell survival,"HCT-116 cells [2]; Study 2, 0.08 mM, 37° C.",102%
same,% cell survival,"HCT-116 cells [2]; Study 2, 0.08 mM, 42° C. 1 hr",92.6%
same,% cell survival,"HCT-116 cells [2]; Study 2, 0.31 mM, 37° C.",97.6%
same,% cell survival,"HCT-116 cells [2]; Study 2, 0.31 mM, 42° C. 1 hr",89%
same,effect on the cytotoxicity caused by Selenite,HCT-116 cells [2],did not appear to modulate the cytotoxicity caused by Selenite
Vitamin D,cell survival,"HCT-116 cells [2]; Study 2, 37° C.",122%
same,cell survival,"HCT-116 cells [2]; Study 2, 42° C. 1 hr",110%
same,growth inhibition at the concentrations tested,HCT-116 cells [2]; Study 2,did not show significant growth inhibition
same,growth promoting effect,HCT-116 cells [2]; Study 2,slight growth promoting effect at the higher concentrations tested
Vitamin E,% cell survival,"HCT-116 cells [2]; Study 2, 0.32 μM, 37° C.",111%
same,% cell survival,"HCT-116 cells [2]; Study 2, 0.32 μM, 42° C. 1 hr",95.5%
same,% cell survival,"HCT-116 cells [2]; Study 2, 1.6 μM, 37° C.",116%
same,% cell survival,"HCT-116 cells [2]; Study 2, 1.6 μM, 42° C. 1 hr",102%
same,growth promoting effect,HCT-116 cells [2]; Study 2,slight growth promoting effect at the lower concentrations tested for 37 °C treated group
same,% cell survival,HCT-116 cells [2]; [6],105.7%
same,% cell survival,HCT-116 cells [2]; [7],81.6%
same,% cell survival,HCT-116 cells [2]; [4],112.2%
same,% cell survival,HCT-116 cells [2]; [5],95.5%
same,GI50,HCT-116 cells [2]; [3],~90 µM
